molecular target: TNFα trimer (Homo sapiens, UniProt P01375); assay: TNFα FP Competitive Binding Assay; settings: TNFα FP competitive binding assay; class symbols A/B/C; read-out: TNF IC50
Outline: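 Fluorescence polarization displacement: 20 nM TNFα trimer (60 nM protein) with 1 nM fluorescein-labelled bis-isoquinoline probe in HEPES/NaCl/EDTA/Triton X-100 buffer. 12-point 1:3 compound series, top final 338 μM (3.4% DMSO) or 100 μM (2.0% DMSO); 18-24 h at 37 °C, then 1 h rt before background-subtracted mP read; variable-slope curve fit.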

Sequence of TNFα trimer (P01375 77-233 limits assumed): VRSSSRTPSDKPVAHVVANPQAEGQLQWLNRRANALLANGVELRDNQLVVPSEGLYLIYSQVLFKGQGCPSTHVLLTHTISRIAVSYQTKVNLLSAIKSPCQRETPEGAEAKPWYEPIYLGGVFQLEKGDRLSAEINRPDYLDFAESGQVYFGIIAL

| IC50 [nM] | SMILES |
| --- | --- |
| < 1000 | C[C@H]1CN(C(=O)CO)CCN1c1ncc(-c2ccc3nc4n(c3n2)C2(COC4)COc3ccccc32)cn1 (some centres unmarked) [BH.1] |
| < 1000 | C[C@@H]1CN(C(=O)CO)CCN1c1ncc(-c2ccc3nc4n(c3n2)C2(COC4)COc3ccccc32)cn1 (some centres unmarked) [BH.2] |
| < 1000 | C[C@@H]1CN(c2ncc(-c3ccc4nc5n(c4n3)C3(COC5)COc4ccccc43)cn2)CCN1C(=O)CO (some centres unmarked) [BH.3] |
| 1000 to 10000 | COC(C)(C)CC(=O)N1CC=C(c2ccc3nc4n(c3n2)C2(COC4)COc3ccccc32)CC1 (centres unmarked) [BI.1] |
| < 1000 | OC1CCN(c2ncc(-c3ccc4nc5n(c4n3)[C@@]3(COC5)COc4ccccc43)cn2)CC1 [BJ.1] |

| SMILES | IC50 [nM] |
| --- | --- |
| C[C@H]1CN(C(=O)COC(C)(C)C)CCN1c1ncc(-c2ccc3nc4n(c3n2)C2(COC4)COc3ccccc32)cn1 (stereo partly drawn) [BG.4, 1-((3S)-4-(5-(2H,6′H,8′H-Spiro[benzofuran-3,9′-pyrido[3′,2′:4,5]imidazo[2,1-c][1,4]oxazin]-2′-yl)pyrimidin-2-yl)-3-methylpiperazin-1-yl)-2-(tert-butoxy)ethan-1-one] | 1000 to 10000 |
| C[C@@H]1CN(C(=O)COC(C)(C)C)CCN1c1ncc(-c2ccc3nc4n(c3n2)C2(COC4)COc3ccccc32)cn1 (stereo partly drawn) [BG.5, 1-((3R)-4-(5-(2H,6′H,8′H-Spiro[benzofuran-3,9′-pyrido[3′,2′:4,5]imidazo[2,1-c][1,4]oxazin]-2′-yl)pyrimidin-2-yl)-3-methylpiperazin-1-yl)-2-(tert-butoxy)ethan-1-one] | 1000 to 10000 |
| C[C@@H]1CN(c2ncc(-c3ccc4nc5n(c4n3)C3(COC5)COc4ccccc43)cn2)CCN1C(=O)COC(C)(C)C (stereo partly drawn) [BG.6, 1-((2R)-4-(5-(2H,6′H,8′H-Spiro[benzofuran-3,9′-pyrido[3′,2′:4,5]imidazo[2,1-c][1,4]oxazin]-2′-yl)pyrimidin-2-yl)-2-methylpiperazin-1-yl)-2-(tert-butoxy)ethan-1-one] | < 1000 |

same assay, conditions: Table BK; read-out: TNF IC50

| IC50 [nM] | SMILES |
| --- | --- |
| < 1000 | O[C@H]1CC[C@@H](COc2cc(-c3ccc4nc5n(c4n3)[C@@H](c3ccccc3)CC5)ccn2)CC1 [BK.1] |
| 1000 to 10000 | O[C@H]1CC[C@H](COc2cc(-c3ccc4nc5n(c4n3)[C@@H](c3ccccc3)CC5)ccn2)CC1 [BK.2] |
| 1000 to 10000 | OC[C@H]1CC[C@H](COc2cc(-c3ccc4nc5n(c4n3)[C@@H](c3ccccc3)CC5)ccn2)CC1 [BK.3] |

same assay, conditions: Table BL; read-out: TNF IC50

| IC50 [nM] | SMILES |
| --- | --- |
| < 1000 | C[C@@H]1CN(c2ncc(-c3ccc4nc5n(c4n3)[C@@]3(COC5)COc4ccccc43)cn2)CCN1C(=O)CO [BL.1] |

same assay, conditions: Table BM; read-out: TNF IC50

| IC50 [nM] | SMILES |
| --- | --- |
| 1000 to 10000 | C[C@@H]1CN(c2ncc(-c3ccc4nc5n(c4n3)[C@]3(COC5)COc4ccccc43)cn2)CCN1C(=O)CO [BM.1] |
| 1000 to 10000 | C[C@H]1CN(c2ncc(-c3ccc4nc5n(c4n3)[C@]3(COC5)COc4ccccc43)cn2)CCN1C(=O)CO [BM.2] |

same assay, conditions: Table BN; read-out: TNF IC50

| IC50 [nM] | SMILES |
| --- | --- |
| 1000 to 10000 | COC(=O)CC1CC=C(c2ccc3nc4n(c3n2)[C@@H](c2ccccc2)CC4)CC1 (some centres unmarked) [BN.1] |

same assay, conditions: Table BO; read-out: TNF IC50

| IC50 [nM] | SMILES |
| --- | --- |
| 1000 to 10000 | OC1CCN(c2ncc(-c3ccc4nc5n(c4n3)C3(COCc4ccccc43)COC5)cn2)CC1 (centres unmarked) [BO.1] |
| < 1000 | O=C1NC[C@@H]2CN(c3ncc(-c4ccc5nc6n(c5n4)C4(COCc5ccccc54)COC6)cn3)CCN12 (some centres unmarked) [BO.2] |

same assay, conditions: Table BP; read-out: TNF IC50

| IC50 [nM] | SMILES |
| --- | --- |
| 1000 to 10000 | c1ccc2c(c1)COCC21COCc2nc3ccc(-c4cnc(N5CCOCC5)nc4)nc3n21 (centres unmarked) [BP.1] |

same assay, conditions: Table BQ; read-out: TNF IC50

| IC50 [nM] | SMILES |
| --- | --- |
| 1000 to 10000 | CC(C)(N)c1ncc(-c2ccc3nc4n(c3n2)[C@@H](c2ccccc2)CC4)cn1 [BQ.1] |

same assay, conditions: fluorescence polarization competition; 20 nM TNFα trimer, 1 nM OregonGreen488 probe; read-out: TNF IC50 (TNFα FP binding assay IC50)

| IC50 [nM] | SMILES |
| --- | --- |
| < 1000 | CC(C)(O)c1ncc(-c2ccc3nc4n(c3c2)[C@@H](c2ccccc2)CC4)cn1 [Example 2, (R)-2-(5-(1-Phenyl-2,3-dihydro-1H-benzo[d]pyrrolo[1,2-a]imidazol-7-yl)pyrimidin-2-yl)propan-2-ol] |
| < 1000 | O=C1NCC2CN(c3ncc(-c4ccc5nc6n(c5c4)[C@@H](c4ccccc4)CC6)cn3)CCN12 (stereo partly drawn) [Example 3, 7-(5-((R)-1-Phenyl-2,3-dihydro-1H-benzo[d]pyrrolo[1,2-a]imidazol-7-yl)pyrimidin-2-yl)hexahydroimidazo[1,5-a]pyrazin-3(2H)-one] |
| < 1000 | OC1CCN(c2ncc(-c3ccc4nc5n(c4c3)[C@@H](c3ccccc3)COC5)cn2)CC1 [Example 4, (S)-1-(5-(4-Phenyl-3,4-dihydro-1H-benzo[4,5]imidazo[2,1-c][1,4]oxazin-7-yl)pyrimidin-2-yl)piperidin-4-ol] |
| 1000 to 10000 | COc1ccccc1C1(O)CCCc2nc3ccc(-c4cnc(N5CCOCC5)nc4)cn3c21 (centres unmarked) [Example 5, 9-(2-Methoxyphenyl)-2-(2-morpholinopyrimidin-5-yl)-6,7,8,9-tetrahydrobenzo[4,5]imidazo[1,2-a]pyridin-9-ol] |
| < 1000 | c1ccc(C2CCc3nc4ccc(-c5cnc(N6CCOCC6)nc5)nc4n32)cc1 (centres unmarked) [Example 6, 4-(5-(8-Phenyl-7,8-dihydro-6H-pyrrolo[2′,1′:2,3]imidazo[4,5-b]pyridin-2-yl)pyrimidin-2-yl)morpholine] |
| < 1000 | CCOC(=O)CNc1ncc(-c2ccc3nc4c(n3c2)C(c2ccccc2OC)CCC4)cn1 (centres unmarked) [Example 7, Ethyl 2-[[5-[9-(2-methoxyphenyl)-6,7,8,9-tetrahydropyrido[1,2-a]benzimidazol-2-yl]pyrimidin-2-yl]amino]acetate] |
| 1000 to 10000 | COc1ccccc1C1CCCc2nc3ccc(-c4cnc(NCC(=O)O)nc4)cn3c21 (centres unmarked) [Example 8, 2-((5-(9-(2-methoxyphenyl)-6,7,8,9-tetrahydrobenzo[4,5]imidazo[1,2-a]pyridin-2-yl)pyrimidin-2-yl)amino)acetic acid] |
| < 1000 | O=C1NCC2CN(c3ncc(-c4ccc5nc6n(c5c4)[C@@H](c4ccccc4)COC6)cn3)CCN12 (stereo partly drawn) [Example 9, 7-(5-((S)-4-Phenyl-3,4-dihydro-1H-benzo[4,5]imidazo[2,1-c][1,4]oxazin-7-yl)pyrimidin-2-yl)hexahydroimidazo[1,5-a]pyrazin-3(2H)-one] |
| < 1000 | COc1ccccc1C1CCc2nc3ccc(-c4cnc(C(C)(C)O)nc4)cn3c21 (centres unmarked) [Example 10, 2-(5-(1-(2-Methoxyphenyl)-2,3-dihydro-1H-cyclopenenta[4,5]imidazo[1,2-a]pyridin-7-yl)pyrimidin-2-yl)propan-2-ol] |
| 10000 to 100000 | COc1ccccc1[C@@H]1CCc2nc3ccc(-c4cnc(C(C)(C)O)nc4)cn3c21 [Example 11, (S)-2-(5-(1-(2-Methoxyphenyl)-2,3-dihydro-1H-cyclopenta[4,5]imidazo[1,2-a]pyridin-7-yl)pyrimidin-2-yl)propan-2-ol] |
| < 1000 | COc1ccccc1[C@H]1CCc2nc3ccc(-c4cnc(C(C)(C)O)nc4)cn3c21 [Example 12, (R)-2-(5-(1-(2-methoxyphenyl)-2,3-dihydro-1H-cyclopenta[4,5]imidazo[1,2-a]pyridin-7-yl)pyrimidin-2-yl)propan-2-ol] |
| < 1000 | CC(C)(O)c1ncc(-c2ccc3nc4n(c3c2)[C@@H](c2ccccc2OC(F)F)COC4)cn1 [Example 13, (S)-2-(5-(4-(2-(Difluoromethoxy)phenyl)-3,4-dihydro-1H-benzo[4,5]imidazo[2,1-c][1,4]oxazin-7-yl)pyrimidin-2-yl)propan-2-ol] |
| 10000 to 100000 | COc1ccccc1C1=CCCc2nc3ccc(-c4cnc(N5CCOCC5)nc4)cn3c21 [Example 14, 4-(5-(9-(2-Methoxyphenyl)-6,7-dihydrobenzo[4,5]imidazo[1,2-a]pyridin-2-yl)pyrimidin-2-yl)morpholine] |
| < 1000 | COc1ccccc1C1CCCc2nc3ccc(-c4cnc(N5CCOCC5)nc4)cn3c21 (centres unmarked) [Example 15, 4-(5-(9-(2-Methoxyphenyl)-6,7,8,9-tetrahydrobenzo[4,5]imidazo[1,2-a]pyridin-2-yl)pyrimidin-2-yl)morpholine] |
| < 1000 | COc1ccccc1C1CCCc2nc3ccc(-c4cnc(C(C)(C)O)nc4)cn3c21 (centres unmarked) [Example 16, 2-(5-(9-(2-Methoxyphenyl)-6,7,8,9-tetrahydrobenzo[4,5]imidazo[1,2-a]pyridin-2-yl)pyrimidin-2-yl)propan-2-ol] |

Second part, the compound before the results:

| SMILES | IC50 [nM] |
| --- | --- |
| c1ccc([C@@H]2CCc3nc4ccc(-c5cnc(N6CCOCC6)nc5)cc4n32)cc1 [C.1] | 10000 to 100000 |
| c1ccc([C@H]2CCc3nc4ccc(-c5cnc(N6CCOCC6)nc5)cc4n32)cc1 [D.3] | < 1000 |
| c1ccc(C2CCOc3nc4ccc(-c5cnc(N6CCOCC6)nc5)cn4c32)cc1 (centres unmarked) [D.4] | 1000 to 10000 |
| COc1ccccc1C1CCOc2nc3ccc(-c4cnc(N5CCOCC5)nc4)cn3c21 (centres unmarked) [D.5] | < 1000 |
| CC(C)(O)c1ncc(-c2ccc3nc4n(c3c2)C(c2ccccc2)CCC4)cn1 (centres unmarked) [E.1, 2-(5-(1-Phenyl-1,2,3,4-tetrahydrobenzo[4,5]imidazo[1,2-a]pyridin-8-yl)pyrimidin-2-yl)propan-2-ol] | < 1000 |
| CC(C)(O)c1ncc(-c2ccc3nc4n(c3c2)C(c2ccccc2O)CCC4)cn1 (centres unmarked) [E.2] | 10000 to 100000 |
| COc1ccccc1C1CCc2nc3ccc(-c4cnc(C(C)(C)O)nc4)cc3n21 (centres unmarked) [E.3] | < 1000 |
| CC(C)(O)c1ncc(-c2ccc3nc4n(c3n2)C2(COC4)COc3ccccc32)cn1 (centres unmarked) [E.4, 2-(5-(6′,8′-Dihydro-2H-spiro[benzofuran-3,9′-pyrido[3′,2′:4,5]imidazo[2,1-c][1,4]oxazin]-2′-yl)pyrimidin-2-yl)propan-2-ol] | < 1000 |
| CC(C)(O)c1ncc(-c2ccc3nc4n(c3n2)C2(CCOc3ccccc32)COC4)cn1 (centres unmarked) [E.5, 2-(5-(6′,8′-Dihydrospiro[chroman-4,9′-pyrido[3′,2′:4,5]imidazo[2,1-c][1,4]oxazin]-2′-yl)pyrimidin-2-yl)propan-2-ol] | 1000 to 10000 |
| CC(C)(O)c1ncc(-c2ccc3nc4n(c3c2)C(c2ccccc2)CC4)cn1 (centres unmarked) [Example 1, 2-(5-(1-Phenyl-2,3-dihydro-1H-benzo[d]pyrrolo[1,2-a]imidazol-7-yl)pyrimidin-2-yl)propan-2-ol] | < 1000 |

— patent US20180179198A1, “TRICYCLIC MODULATORS OF TNF SIGNALING” (AbbVie Inc., priority 2015, published 2018)
